Test results from paper PMC10366102, “Dose escalation and expansion cohorts in patients with advanced breast cancer in a Phase I study of the CDK7-inhibitor samuraciclib” (Nature Communications, 2023).
Values joined by “and” are separate entries in the source; they are usually repeats but may differ in a detail not shown here. Equal entries are not always repeated.

Columns and labels:
[1] = tested on: advanced solid malignancies; test: Module 1A anti-tumor activity (RECIST V1.1, PSA); type: in vivo, human
From the text: (§1) treatment RECIST assessment. […]
(§2) number of patients in the particular analysis population. Duration of response (DoR) was defined as the time from documentation of tumor response to disease progression. Progression-free survival (PFS) was […]
(§3) cause, whichever occurred first. Efficacy results were summarized descriptively and Kaplan -Meier plots provided where appropriate. […]

[2] = parameters: method as in ref IB; conditions: dog microsomes; ref IB; cited from earlier work
CYP3A4 = tested on: CYP3A4; parameters: method as in ref IB; conditions: human microsomes; ref IB; cited from earlier work
[3] = tested on: patients with locally advanced and/or metastatic TNBC; conditions: both, human, in vivo
Experimental: (§4) A single arm expansion was conducted to refine the safety, tolerability, PK, and pharmacodynamic profiles of samuraciclib monotherapy (360 mg OD) in male or female patients with advanced TNBC. Patients with histological, radiological or cytological confirmation of metastasis or locally advanced TNBC not considered to be appropriate for further standard treatment, who had received at least 1 line of systemic anti-cancer therapy, and measurable disease according to the RECIST V1.1, were eligible.
Patients underwent regular safety monitoring and 8-week scans reported using RECIST V1.1.
Module 1B-1 was a cohort expansion to explore the safety, tolerability, PK and pharmacodynamic effects, and anti-tumor activity of samuraciclib when given as monotherapy to patients with advanced TNBC; participants were treated at a starting dose of 360 mg once daily (OD). The initial sample size was to be a maximum of 50 participants, of whom approximately 30 participants were to receive the CT7001 dosing regimen which was declared as the RP2D.
Module 1B-1 included an interim efficacy analysis when 15 patients in the RP2D Population were evaluable for efficacy assessments. The Module 1B-1 TNBC expansion phase was designed using a 2-stage design. The null hypothesis for the ORR was 10% and this was tested against an alternative […]
patients were to be recruited, and the […]. Otherwise, recruitment was to continue until up to a total of 30 evaluable patients were recruited and if ≥6/30 (20%) responses were observed, across both stages of the study, the null hypothesis was to be rejected. At the timepoint for the interim efficacy assessment, the requirement of 2 or more participants achieving a Response Evaluation Criteria in Solid Tumors (RECIST) PR had not been met, with only 1 participant in the first 15 evaluable participants achieving a PR. However, 8 out of 15 evaluable participants achieved SD, with 4 participants being treated for at least 16 weeks, which in this aggressive tumor type is of significant clinical note. Following discussion with the SRC it was agreed that further evaluable participants would be recruited into this expansion study.
The schedule of assessments for this study is provided in Supplementary Table 3. […]
Duration of response (DoR) was defined as the time from documentation of tumor response to disease progression. Progression-free survival (PFS) was […]
as §3
received at least 1 dose of samuraciclib). These were summarized by Medical Dictionary for Regulatory […]
adverse events (SAEs) were analyzed and reported separately. Details of any deaths were listed. All […]
were listed individually by patient and summarized descriptively. For urinalysis parameters, any […]
positive. Abnormal physical examina tion findings were listed.

[4] = parameters: method as in ref IB; conditions: mouse hepatocytes; ref IB; cited from earlier work
advanced TNBC = test: Module 1B-1 anti-tumor activity (RECIST V1.1); type: in vivo, human
Experimental: as §4
Patients underwent regular safety monitoring and 8-week scans reported using RECIST V1.1. […]
as §1, §2, §3

CYP3A5 = tested on: CYP3A5; parameters: method as in ref IB; conditions: human microsomes; ref IB; cited from earlier work
CYP2C8 = tested on: CYP2C8; parameters: method as in ref IB; conditions: human microsomes; ref IB; cited from earlier work
[5] = Module 1A, 36 evaluable patients
[6] = two castrate-resistant prostate cancer patients

CC(C)c1cnn2c(NCc3ccccc3)cc(NC[C@H]3CCNC[C@@H]3O)nc12 [samuraciclib, Samuraciclib]
Best change in lesion size on CT scan ([1]; 1 colorectal cancer patient, 120 mg): -21% | Decline in cancer antigen CA 15-3 ([1]; 1 patient with HR-positive BC, interim): 30% | Duration of stable disease ([1]; 1 patient, HR-positive BC, 240 mg, ongoing): […] | Duration of stable disease ([1]; 1 patient, castrate-refractory prostate cancer, 240 mg, cut-off 24-September-2018): […] | Duration of stable disease ([1]; 1 patient, castrate-refractory prostate cancer, 360 mg, ongoing): […] | Duration of stable disease ([1]; 1 patient, chondrosarcoma, 360 mg, ongoing): […] | Duration of stable disease ([1]; 1 patient, oesophageal cancer, 240 mg): […] | Duration of stable disease ([1]; 1 patient, small-cell lung cancer, 240 mg): […] | Decline in PSA ([1]; 2/2 patients with castrate-refractory prostate cancer, interim, listed as CT7001): 45% and 30% | Duration of stable disease ([1]; 2 patients, colorectal cancer, 120 mg, each): […] | Best objective response: Complete response ([1]; Module 1A N = 36): 0 n (%) | Best objective response: Partial response ([1]; Module 1A N = 36): 1 (2.8) n (%) | Best objective response: Progressive disease ([1]; Module 1A N = 36): 17 (47.2) n (%) | Best objective response: Stable disease ([1]; Module 1A N = 36): […] | Disease control rate ([1]; Module 1A N = 36): 19 (52.8) n (%) | Disease control rate [1, 5]: 53% and 52.8% | Patients maintaining stable disease ≥ 12 weeks [1, 5]: 38.9% | Duration of partial response ([1]; heavily pre-treated HR+ breast cancer patient, 240 mg OD monotherapy): […] | Duration of PSA reduction [1, 6]: […] | Reduction in PSA compared to baseline [1, 6]: 28% and 44% | Intrinsic clearance [2]: intermediate | IC50 (CYP3A4): […] | ALT increased; All AEs [3]: 0 patients (%) | ALT increased; Grade ≥3 [3]: 0 patients (%) | AST increased; All AEs [3]: 0 patients (%) | AST increased; Grade ≥3 [3]: 0 patients (%) | Abdominal pain upper; All AEs [3]: 0 patients (%) | Abdominal pain upper; Grade ≥3 [3]: 0 patients (%) | Abdominal pain; All AEs [3]: 6 (26.1) patients (%) | Abdominal pain; Grade ≥3 [3]: 0 patients (%) | Anemia; All AEs [3]: 0 patients (%) | Anemia; Grade ≥3 [3]: 1 (4.3) patients (%) | Any treatment-emergent AE; All AEs [3]: 23 (100.0) patients (%) | Any treatment-emergent AE; Grade ≥3 [3]: 10 (43.5) patients (%) | Back pain; All AEs [3]: 0 patients (%) | Back pain; Grade ≥3 [3]: 0 patients (%) | Constipation; All AEs [3]: 7 (30.4) patients (%) | Constipation; Grade ≥3 [3]: 0 patients (%) | Cough; All AEs [3]: 3 (13.0) patients (%) | Cough; Grade ≥3 [3]: 0 patients (%) | Decreased appetite; All AEs [3]: 3 (13.0) patients (%) | Decreased appetite; Grade ≥3 [3]: 0 patients (%) | Diarrhea; All AEs [3]: 21 (91.3) patients (%) | Diarrhea; Grade ≥3 [3]: 3 (13.0) patients (%) | Discontinued samuraciclib due to related AEs [3]: 4.3% | Dizziness; All AEs [3]: 0 patients (%) | Dizziness; Grade ≥3 [3]: 0 patients (%) | Dysgeusia; All AEs [3]: 0 patients (%) | Dysgeusia; Grade ≥3 [3]: 0 patients (%) | Dysphagia; All AEs [3]: 0 patients (%) | Dysphagia; Grade ≥3 [3]: 0 patients (%) | Dyspnea; All AEs [3]: 0 patients (%) | Dyspnea; Grade ≥3 [3]: 0 patients (%) | Fatigue; All AEs [3]: 11 (47.8) patients (%) | Fatigue; Grade ≥3 [3]: 1 (4.3) patients (%) | Headache; All AEs [3]: 0 patients (%) | Headache; Grade ≥3 [3]: 0 patients (%) | Hyperglycemia; All AEs [3]: 0 patients (%) | Hyperglycemia; Grade ≥3 [3]: 0 patients (%) | Hypocalcaemia; All AEs [3]: 0 patients (%) | Hypocalcaemia; Grade ≥3 [3]: 0 patients (%) | Hypokalaemia; All AEs [3]: 0 patients (%) | Hypokalaemia; Grade ≥3 [3]: 0 patients (%) | Nausea; All AEs [3]: 22 (95.7) patients (%) | Nausea; Grade ≥3 [3]: 1 (4.3) patients (%) | Rash; All AEs [3]: 0 patients (%) | Rash; Grade ≥3 [3]: 0 patients (%) | Stomatitis; All AEs [3]: 3 (13.0) patients (%) | Stomatitis; Grade ≥3 [3]: 1 (4.3) patients (%) | Taste disorder; All AEs [3]: 0 patients (%) | Taste disorder; Grade ≥3 [3]: 0 patients (%) | Upper respiratory tract infection; All AEs [3]: 3 (13.0) patients (%) | Upper respiratory tract infection; Grade ≥3 [3]: 0 patients (%) | Urinary tract infection; All AEs [3]: 0 patients (%) | Urinary tract infection; Grade ≥3 [3]: 0 patients (%) | Vomiting; All AEs [3]: 14 (60.9) patients (%) | Vomiting; Grade ≥3 [3]: 2 (8.7) patients (%) | Weight decreased; All AEs [3]: 0 patients (%) | Weight decreased; Grade ≥3 [3]: 0 patients (%) | Overall turnover [4]: low | Duration of response of the one PR (advanced TNBC; Module 1B-1, 360 mg OD): […] | Clinical benefit rate at 24 weeks (advanced TNBC; Module 1B-1, 4/20): 20.0% | Best overall response progressive disease (advanced TNBC; Module 1B-1, 20 evaluable): 40.0% | Best overall response stable disease (advanced TNBC; Module 1B-1, 20 evaluable): 55.0% | Objective response rate (advanced TNBC; Module 1B-1, 20 evaluable): 5.0% | Progression-free survival, median (95% confidence interval) (advanced TNBC; Module 1B-1 ITT N = 23): 2.4 (1.9, 3.8) months | Best objective response: Complete response (advanced TNBC; Module 1B-1 N = 20): 0 n (%) | Best objective response: Partial response (advanced TNBC; Module 1B-1 N = 20): 1 (5.0) n (%) | Best objective response: Progressive disease (advanced TNBC; Module 1B-1 N = 20): 8 (40.0) n (%) | Best objective response: Stable disease (advanced TNBC; Module 1B-1 N = 20): 11 (55.0) n (%) | Objective response rate (advanced TNBC; Module 1B-1 N = 20): 1 (5.0) n (%) | IC50 (CYP3A5): > 50 µM | IC50 (CYP2C8): > 50 µM
